The subject of series [1] is Geobacillus stearothermophilus. The series can be described thus: Sterilization of inoculated flexible endoscopes with PAA vapor from a one liter glass bubbler. The class given is cell-based. Particulars: 6-7 log inoculum, chamber at room temperature. The text has this: A one liter glass bubbler as the vapor system was used to test three different flexible endoscopes to determine the efficacy of the system against microorganisms as a function of size and architecture of endoscope.
The three endoscope types were chosen to meet the three primary conditions of flexible endoscopes: • Long endoscope: XSIF-100 • Complex channel system scope: CFQ-160L • Basic/small scope: BF-P40 and BF-P30
Each scope was inoculated on both the exterior and interior of the lumens with Geobacillus stearothermophilus suspended in serum or saline solution at a target concentration of microorganisms of 6-7 log for each run. The scope was then sealed inside a double Tyvek bag with a hookup adaptor. Each flexible endoscope was evaluated for a total of 22 inoculated surfaces to achieve a greater than 95% confidence level.
The test conditions for each scope are described below: • For CF-Q160L endoscope: • a. Bubbler flow rate: 4000 mL/min • b. Circulation Flow Rate: 12000 mL/min • c. Contact Time: 60 min
For XSIF-100 endoscope: • a. Bubbler flow rate: […] • b. Circulation Flow Rate: 11000 mL/min • c. Contact Time: 15 min and 30 min
For BF-P40 and BF-P30 endoscopes: • a. Bubbler flow rate: 4000 mL/min • b. Circulation Flow Rate: 11000 mL/min • c. Contact Time: 30 min
The chamber for all the runs was at room temperature.

The subject of series [2] is Geobacillus stearothermophilus. In words: Colonoscope sterilization in 60 liter stainless steel chamber. Type of series: cell-based. Particulars: colonoscope CFQ-160 L, bubbler 4 L/min, circulation approximately 12 L/min, 60 minutes, 6-7 log inoculum. How it is done: A 60 liter stainless steel chamber was used to determine the effect of chamber size on the efficacy of the bubbler system when the chamber size and material were changed. The flow rate used was 4 L/min for a bubbler and approximately 12 L/min for circulation and the sterilization time was for 60 minutes. Twenty-two inoculated surfaces were studied with the colonoscope (CFQ-160 L). Each scope was inoculated on both the exterior and interior of the lumens with Geobacillus stearothermophilus suspended in serum or saline solution at a target concentration of microorganisms of 6-7 log for each run.

Series [3] can be described thus: Evacuation of sterilant after sterilization: PAA in chamber and residuals on scope. Particulars: after 30 minute ventilation. The text has this: To evacuate the sterilant out after the sterilization process, the experiment utilized three additional parts to the system: • 1. Circulating fan inside the chamber lid to generate turbulence to promote the evacuation process. • 2. Air pump at the outlet vent to help remove the sterilant out of the system. • 3. Medical air inlet to dilute the concentration of PAA for faster evacuating process.
The process included a flow of medical air in at 15 L/min (flow through both chamber and lumen of scope) and a flow of air out of the chamber (generated by the air pump) and a circulation flow inside the chamber (generated by the fan). The equivalent of flow through the chamber allowed the pressure inside the chamber to be closer to atmospheric pressure to reduce scope damage and allow easier design of the chamber.

In series [4] the test system is Mesa brand biological indicator (BI). The series can be described thus: System 220 bubbler flow through elevator wire channel, biological indicator kill. Type of series: cell-based. The text has this:
In this embodiment, vapor system 220 was substantially modified to allow PAA vapor to flow from the bubbler 231 into an endoscope's elevator wire channel 270. To generate flow, a duodenoscope was placed in a poly tray (no terminal packaging was used) and the elevator wire channel of the endoscope was connected to the flow path. The vacuum chamber 240 was evacuated to 20 torr (±5 torr) so as to create enough pressure differential to flow PAA vapor 232A without any additional mechanical assistance, such as a pump. The flow rate was estimated to be about 150 ml per minute. Potential system leaks were assessed by closing the On/Off valve of the bubbler, isolating the chamber in manual control mode, and holding for 5 minutes. Chamber leak rate was determined to be less than 0.5 torr per five minutes. Depending on the application and the size of the bubbler vessel, PAA flow rate was to be controlled via the needle valve. In this illustrated embodiment, needle valve 252 was in its maximum flow position during all experiments, indicating needle valve 252 was not needed. Flow of PAA vapor to the distal tip of the scope was assured by affixing a PAA chemical indicator (CI) 280. Additional CIs were placed throughout the chamber to monitor for the presence of residual PAA presence, but these were optional and not critical to the operation of system 220. […]

In series [5] the test system is biological indicators (BIs). The series can be described thus: Heated 90 cm bubbler runs, biological indicators in beakers, Tyvek and process challenge devices. Type of series: cell-based. The procedure:
In this example embodiment of bubbler 430 and system 420, the Bubbler System was modified to accept a 50 mm outside diameter by 90 cm long glass tube (5 mm wall thickness) attached to a 417-liter REVOX system. During all experiments, 250 mL of REVOX PA liquid was measured by graduated cylinder and poured into the 90 cm Bubbler. The Bubbler System was connected to the 417-liter REVOX sterilization chamber referred to as an improved bubbler vessel configuration. Air was drawn into bubbler 430 using only the force of the vacuum within sterilization chamber. A simple on-off valve was used to control the flow of air through the bubbler, allowing for “blocks” to be created in a similar manner to a normal REVOX cycle. In several cases a flow meter and/or infrared vapor detector was used to monitor the output of the Bubbler. In all cases, unused functions of the modified Revox Sterilization chamber/system were turned off (e.g. Dehumidification Hold was always set to 0) or were disabled (e.g. scope flow valve power was physically unplugged).
(§1) An assortment of process challenge devices (PCDs) were procured as a rough gauge to see what modes of sterilization are possible with the current bubbler 430 setup. These devices included simple Tyvek bags containing BIs, a syringe based PCD which contained a BI, a HF2000 Hemofilter cut to allow a BI to be inserted into the fiber mesh, and an artificial bone matrix provided by the REVOX team. Additionally, an Olympus TJF160 duodenoscope was inoculated with 6-log of bacteria on the exterior surface and within the scope lumens and was exposed to a Bubbler cycle with no hookups. This scope was used to assess penetration of sterilant down fine lumens.
(§2) The difference between heated and non-heated bubbler systems is the resulting humidity present in the chamber during the sterilization cycles. The humidity level on Cycle 250, as an example, exceeded 100% relative humidity. Maximum humidity levels were recorded by visual observation. The importance of humidity was again shown in Cycle 251 where humidity levels never exceeded 60% while testing a rapid, multi block cycle. […] Cycle 252 was used to test the effect of a single block run with a longer period of hold. […] Cycle 253 tested the penetration of Bubbler created PAA vapor into the long lumens of an Olympus TJF-160 duodenoscope. The scope surface, elevator wire channel, air/water channel, and suction biopsy channel were each inoculated with 6-logs of Geobacillus stearothermophilus spores. No hookups were used to pass PAA vapor into the lumens.
Cycle 254 tested a single 15-minute contact time on BIs in the chamber and within a Tyvek pouch. With pump down and ventilation, the total run time was 22 minutes. […] Additionally, between 5 and 10 additional minutes could be cut out of the cycle to achieve the same results. This is based on the rate at which the chemical indicators bleach out within the chamber, which tends to happen less than 5 minutes after PAA exposure begins. Within this cycle as well, two different types of Cantel Medical PAA chemical indicators were used. No appreciable difference was observed between the two varieties of CIs. Cycles 255 and 256 provide insight into the utility of the large scale Bubbler technology. […] The results of the Hemofilter can be explained by the complexity of filter membrane and its massive surface area. More “blocks” or injections of PAA vapor are likely needed to saturate the filter membrane with PAA vapor. The bone matrix, however, is readily porous and should be easily sterilized under these conditions. […] It is hypothesized that the metal is causing a breakdown of the PAA vapor as it passes through the bone matrix.

In series [6] the test system is Geobacillus stearothermophilus spores. In words: Heated bubbler Cycle 253, inoculated Olympus TJF-160 duodenoscope without hookups. Particulars: Cycle 253: contact time 1200, 3 inj, 6-logs of spores, no hookups. The class given is cell-based.
Excerpt: as §1
as §2, with “The scope surface, elevator wire channel, air/water channel, and suction biopsy channel were each inoculated with 6-logs of Geobacillus stearothermophilus spores. No hookups were used to pass PAA vapor into the lumens.” left out

For series [7] the following is noted: limit that the residual is compared with; cited from earlier work.
[8] abbreviates: Cycle 254: contact time 900 (15-minute), 1 inj, inj 5 torr.
The mark [9] stands for this setting: Cycle 255: contact time 1200, 3 inj, inj 5 torr.
Where [10] appears, read: Cycle 256: contact time 3600, 2 inj, inj 1 torr.

SMILES strings stand for the structures.

`CC(=O)OO` [PAA, peracetic acid]: the “Result: survivors on 22 inoculated surfaces” value (shortened to “Result: survivors”) in series [1] (Bronchoscope BF-P40 and BF-P30, bubbler 4000 mL/min, circulation 11000 mL/min, contact 30 min) is “All 22 inoculated surfaces have no”. Moreover, the “Result: survivors” value in series [1] (Colonoscope CFQ-160L, bubbler 4000 mL/min, circulation 12000 mL/min, contact 60 min) is reported as “All 22 inoculated surfaces have no”. In addition, in series [1] (Enteroscope XSIF-100, bubbler 4000 mL, circulation 11000 mL/min, contact 15 min and 30 min), the “Result: survivors” value is “All 22 inoculated surfaces have no”. Also, the “survivors on 22 inoculated surfaces, scope and biological indicators” value in series [2] is given as “no survivors”. In series [3], the “residuals on the scope” value is 30 mg of PAA. The “BI Results” value in series [4] (contact time 600 seconds (Manual 1, Manual 2), chamber 20 torr, BI in vessel along flow path) is “alive”. Further, the biological indicators entry in series [4] (scope flow time 30 minutes or greater) was “dead”. Besides, in series [5] (Cycle 250: contact time 1200, 3 inj, inj 5 torr, post inj 500 torr, humidity exceeded 100%), the “BI Results: BIs in Beakers (negative = kill)” value is given as “complete kill”. The “BI Results: BIs in Beakers” value in series [5] (Cycle 251: contact time 60, 20 inj, inj 5 torr, humidity never exceeded 60%) is reported as “No kill”. Further, the “BI Results: BIs in Beakers” value in series [5] (Cycle 252: contact time 1800, 1 inj, inj 5 torr, humidity exceeded 100%) was “Kill was achieved”. In series [5] (setting [8]), the “BI Results: BIs in Beakers” value is listed as “sterilized” and the “BI Results: BIs in Tyvek” value is recorded as “sterilized”. In addition, in series [5] (setting [9]), the “BI Results: BIs in Syringe PCD” value is “able to kill”, the “BI Results: Bone Marrow BI” value was “not able to kill” and the “BI Results: Hemofilter PCD BI” value is “not able to kill”. Besides, in series [5] (setting [10]), the “BI Results: Bone Marrow PCD” value is listed as “not able to kill”, the “BI Results: Hemofilter PCD” value is reported as “not able to kill” and the “BI Results: Syringe PCD” value is recorded as “able to kill”. Moreover, in series [6], the “Scope Exterior” value was “full kill” and the “Scope Lumens” value is recorded as 1 log reduction. Further, the “worst case residual toxicity” value in series [7] is on record as 7050 mg of PAA per total device.

These data come from US20200375691A1, “PERACETIC ACID VAPOR STERILIZATION SYSTEM” (Medivators Inc., priority 2018, published 2020).
